Data: PMC10208570, “Peptidomimetic antibiotics disrupt the lipopolysaccharide transport bridge of drug-resistant Enterobacteriaceae” (Science Advances, 2023)
≈ marks a conversion by molar mass, not a printed value. Like-named read-outs stand apart in the source and are kept apart here.

Legend:
[1] = test system: panel of 121 Enterobacteriaceae including CRE, MDR, and XDR isolates; experiment: organism not typed
Procedure: (§1) MIC assays [Clinical and Laboratory Standards Institute (CLSI) methodology] and serial passage studies were performed as described by Luther et al. ([6]). […] Resistant mutants were isolated, and their MIC values were determined and sent to Microbes NG (Birmingham, United Kingdom) for whole-genome sequencing and bioinformatic analysis.

[2] = test system: Enterobacteriaceae (CS, Col-S) (n=22); type: cell-based; conditions: CLSI microdilution; minimum and maximum MIC of the panel; carbapenem sensitive, colistin sensitive
Procedure: as §1

[3] = test system: E. coli ATCC 25922 LptA Q62L mutant; experiment: microbe, parasite or virus in culture; conditions: Escherichia coli
Procedure: as §1

[4] = test system: E. coli ATCC 25922 (parent / WT); experiment: microbe, parasite or virus in culture; conditions: Escherichia coli
Procedure: as §1

[5] = test system: Klebsiella pneumoniae NCTC 13443 LptA I36S mutant; experiment: microbe, parasite or virus in culture; conditions: Klebsiella pneumoniae, NCTC13443, read-out: MIC Klebsiella pneumoniae NCTC 13443 LptA I36S (2x)
Procedure: as §1

[6] = test system: Klebsiella pneumoniae NCTC 13443 LpxC, LpxD mutant; experiment: microbe, parasite or virus in culture; conditions: Klebsiella pneumoniae, NCTC13443, read-out: MIC Klebsiella pneumoniae NCTC 13443 LpxC, LpxD (1x)
Procedure: as §1

[7] = test system: Escherichia coli ATCC 25922 LptA E84D mutant; experiment: microbe, parasite or virus in culture; conditions: Escherichia coli, ATCC25922, read-out: MIC Escherichia coli ATCC 25922 LptA E84D (1x)
Procedure: as §1

[8] = test system: K. pneumoniae NCTC 13443 (NDM-1) LptA Q62L mutant; experiment: microbe, parasite or virus in culture; conditions: Klebsiella pneumoniae
Procedure: as §1

[9] = test system: Escherichia coli ATCC 25922 KdsD mutant; experiment: microbe, parasite or virus in culture; conditions: Escherichia coli, ATCC25922, read-out: MIC Escherichia coli ATCC 25922 KdsD (2x)
Procedure: as §1

[10] = test system: Klebsiella pneumoniae ATCC 43816 PglJ, PhnJ, ThiH mutant; experiment: microbe, parasite or virus in culture; conditions: Klebsiella pneumoniae, ATCC43816, read-out: MIC Klebsiella pneumoniae ATCC 43816 PglJ, PhnJ, ThiH (1x)
Procedure: as §1

[11] = test system: Klebsiella pneumoniae ATCC 43816 LptA I36N mutant; experiment: microbe, parasite or virus in culture; conditions: Klebsiella pneumoniae, ATCC43816, read-out: MIC Klebsiella pneumoniae ATCC 43816 LptA I36N (1x)
Procedure: as §1

[12] = test system: Klebsiella pneumoniae ATCC 43816 LapB mutant; experiment: microbe, parasite or virus in culture; conditions: Klebsiella pneumoniae, ATCC43816, read-out: MIC Klebsiella pneumoniae ATCC 43816 LapB (1x)
Procedure: as §1

[13] = test system: K. pneumoniae ATCC 43816 (parent / WT); experiment: microbe, parasite or virus in culture; conditions: Klebsiella pneumoniae, ATCC43816, read-out: MIC Klebsiella pneumoniae ATCC 43816 WT
Procedure: as §1

[14] = test system: K. pneumoniae ATCC 43816 LptA Q62L mutant; experiment: microbe, parasite or virus in culture; conditions: Klebsiella pneumoniae
Procedure: as §1

[15] = test system: Klebsiella pneumoniae NCTC 13443 YejM mutant; experiment: microbe, parasite or virus in culture; conditions: Klebsiella pneumoniae, NCTC13443, read-out: MIC Klebsiella pneumoniae NCTC 13443 YejM (1x)
Procedure: as §1

[16] = test system: Klebsiella pneumoniae ATCC 43816 LptA I36S mutant; experiment: microbe, parasite or virus in culture; conditions: Klebsiella pneumoniae, ATCC43816, read-out: MIC Klebsiella pneumoniae ATCC 43816 LptA I36S (1x)
Procedure: as §1

[17] = test system: Klebsiella pneumoniae ATCC 43816 LptA L116Q mutant; experiment: microbe, parasite or virus in culture; conditions: Klebsiella pneumoniae, ATCC43816, read-out: MIC Klebsiella pneumoniae ATCC 43816 LptA L116Q (1x)
Procedure: as §1

[18] = test system: K. pneumoniae NCTC 13443 (NDM-1) (parent / WT); experiment: microbe, parasite or virus in culture; conditions: Klebsiella pneumoniae
Procedure: as §1

E. coli ST131 (n=8) = experiment: MIC against isolate panel; type: cell-based, Escherichia coli; conditions: CLSI microdilution; minimum and maximum MIC of the panel
Procedure: as §1

[19] = test system: K. pneumoniae 968733 (CST-R); experiment: MIC assay (CLSI); type: cell-based, Klebsiella pneumoniae; conditions: Klebsiella pneumoniae, read-out: MIC K. pneumoniae 968733 (CST-R) Parent
Procedure: as §1

`C[C@@H](O)[C@H]1C(=O)N2C(C(=O)O)=C(S[C@@H]3CN[C@H](C(=O)N(C)C)C3)[C@H](C)[C@H]12` [Meropenem] was tested, and the MIC50 ([1]; read-out: MIC50 (n=121)) was greater than 8 µg/mL, the MIC90 ([1]; read-out: MIC90 (n=121)) was greater than 64 µg/mL and the “MIC range Enterobacteriaceae (CS, Col-S) (n=22)” value [2] was no more than 0.06 to 0.5 µg/mL. The MIC ([3]; ATCC25922, read-out: MIC E. coli ATCC 25922 Q62L mutant) was 0.063 µg/mL (≈ 0.164 µM), the MIC ([3]; ATCC25922, read-out: MIC Escherichia coli ATCC 25922 LptA Q62L (7x)) was no more than 0.06 µg/mL and the MIC ([4]; ATCC25922, read-out: MIC E. coli ATCC 25922 Parent) was 0.063 µg/mL (≈ 0.164 µM). The MIC ([4]; ATCC25922, read-out: MIC Escherichia coli ATCC 25922 WT) was no more than 0.06 µg/mL, the MIC [5] was greater than 64 µg/mL and the MIC [6] was greater than 64 µg/mL. For the same compound, the MIC [7] was no more than 0.06 µg/mL, the MIC ([8]; NCTC13443, read-out: MIC K. pneumoniae NCTC 13443 (NDM-1) Q62L mutant) was greater than 8 µg/mL and the MIC ([8]; NCTC13443, read-out: MIC Klebsiella pneumoniae NCTC 13443 LptA Q62L (5x)) was greater than 64 µg/mL. It also gave an MIC [9] of 0.13 µg/mL (≈ 0.339 µM), an MIC [10] of 0.13 µg/mL (≈ 0.339 µM) and an MIC [11] of no more than 0.06 µg/mL. For the same compound, the MIC [12] was 0.13 µg/mL (≈ 0.339 µM), the MIC [13] was 0.13 µg/mL (≈ 0.339 µM) and the MIC ([14]; ATCC43816, read-out: MIC K. pneumoniae ATCC 43816 Q62L mutant) was 0.063 µg/mL (≈ 0.164 µM). It also gave an MIC ([14]; ATCC43816, read-out: MIC Klebsiella pneumoniae ATCC 43816 LptA Q62L (4x)) of no more than 0.06 µg/mL, an MIC [15] greater than 64 µg/mL and an MIC [16] of no more than 0.06 µg/mL. For the same compound, the MIC [17] was no more than 0.06 µg/mL, the MIC ([18]; NCTC13443, read-out: MIC K. pneumoniae NCTC 13443 (NDM-1) Parent) was greater than 8 µg/mL and the MIC ([18]; NCTC13443, read-out: MIC Klebsiella pneumoniae NCTC 13443 WT) was greater than 64 µg/mL. For the same compound, the “MIC range E. coli ST131 (n=8)” value (E. coli ST131 (n=8)) was “<=0.06-8 µg/mL” and the MIC [19] was 0.031 µg/mL (≈ 0.0808 µM).
